Target: T1, human androgen receptor (hAR) (Homo sapiens, UniProt P10275, DEL79-80/DUP470-473/R9G)
T1 construct: made in house; host or cells: Sf9 insect cells (baculovirus)
T1 sequence (P10275 with tags, fused parts or gaps R9G/DEL79-80/DUP470-473): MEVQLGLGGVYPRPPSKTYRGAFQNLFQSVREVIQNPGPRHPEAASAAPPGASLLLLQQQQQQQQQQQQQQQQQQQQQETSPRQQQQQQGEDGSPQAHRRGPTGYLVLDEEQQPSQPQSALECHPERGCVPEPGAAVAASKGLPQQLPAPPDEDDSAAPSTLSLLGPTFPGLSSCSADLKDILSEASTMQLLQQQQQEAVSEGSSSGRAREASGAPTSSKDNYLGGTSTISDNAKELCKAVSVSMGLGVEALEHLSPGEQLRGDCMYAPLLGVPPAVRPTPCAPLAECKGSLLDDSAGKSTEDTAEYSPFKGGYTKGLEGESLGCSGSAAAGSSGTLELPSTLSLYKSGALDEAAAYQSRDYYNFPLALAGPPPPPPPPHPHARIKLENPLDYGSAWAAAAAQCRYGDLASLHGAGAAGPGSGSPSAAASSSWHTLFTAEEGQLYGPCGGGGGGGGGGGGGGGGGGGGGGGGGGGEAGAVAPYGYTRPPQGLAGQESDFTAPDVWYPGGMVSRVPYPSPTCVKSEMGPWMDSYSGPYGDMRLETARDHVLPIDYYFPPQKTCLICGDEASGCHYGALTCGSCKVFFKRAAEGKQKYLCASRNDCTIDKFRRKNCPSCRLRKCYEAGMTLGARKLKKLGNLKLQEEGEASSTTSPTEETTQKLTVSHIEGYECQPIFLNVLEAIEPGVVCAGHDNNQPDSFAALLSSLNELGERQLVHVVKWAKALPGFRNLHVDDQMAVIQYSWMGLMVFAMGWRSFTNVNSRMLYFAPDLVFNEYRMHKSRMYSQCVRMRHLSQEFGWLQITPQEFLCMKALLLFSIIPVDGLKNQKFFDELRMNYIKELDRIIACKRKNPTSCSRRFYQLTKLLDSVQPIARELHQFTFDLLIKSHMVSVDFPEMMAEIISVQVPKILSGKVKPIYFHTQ
Assay: Radioligand binding, [3H]mibolerone, hAR expressed in Sf9
Conditions: hAR expressed in Sf9; [3H]mibolerone 0.3 nM; read-out: Mean Ki ± SEM hAR
Protocol: Full-length human mineralocorticoid receptor (hMR) to be used in radioligand binding was isolated from a human kidney cDNA library (Clontech, Palo Alto, CA). […] The hMR, hPR, and hAR cDNAs were subcloned in the eukaryotic expression vector pcDNA3. Methods for the expression of functionally active hMR, hAR and hPR utilizing the baculovirus expression system were described previously, [31].
Affinity of ligands to the soluble receptor was determined using vacuum filtration methods, preparing soluble receptors in 96-well Falcon polystyrene plates (BD Biosciences, Bedford, MA) in a total volume of 250 μl. […] Binding studies for ligands for hPR and hAR were determined using [1,2,6,7-3H(N)] […] Specific binding of 3H-progesterone for hPR and 3H-mibolerone for hAR was determined in the presence and absence of 1 μM mifepristone. Inhibition constants (Ki), were determined either from the Cheng-Prusoff equation[32], or directly using non-linear regression curve fitting to a three-parameter one-site competitive equation. […] Protein was measured using colorimetric detection and quantification of bicinchoninic acid (BCA Protein Assay, Pierce, Rockford, IL). […] Concentration response curves were analyzed statistically using a four-parameter logistic equation (Hill equation for sigmoid curves). […]

O=c1[nH]c2ccc(/C=C3\c4ccc(F)cc4COc4cc(F)ccc43)cc2[nH]1 [Ly]
Ki: 0.323 ± 0.101 µM
